According to patent US8927569:

Settings: from C=CCC(C)(C)COC(=O)N[C@H](C(=O)N1C[C@H](Oc2cc(=O)[nH]c3cc(OC)c(C=C)cc23)C[C@H]1C(=O)OC)C1CCCCC1; rcm bond; Zhan 1b catalyst; DCM; 5.0 mM; 40.0 °C; 32.0 h

For `COC(=O)[C@@H]1C[C@@H]2CN1C(=O)[C@H](C1CCCCC1)NC(=O)OCC(C)(C)C/C=C/c1cc3c(cc(=O)[nH]c3cc1OC)O2`, which ring closure, yield of all isomers is on record?
Its ring closure, yield of all isomers is 99%.
